# From publication PMC6787355, “Purification, kinetic characterization, and site-directed mutagenesis of Methanothermobacter thermautotrophicus RFAP Synthase Produced in Escherichia coli” (AIMS Microbiology, 2019)
# Where a chain is given by its changes, count along the chain named. Names and notes keep the numbering of the source. Values joined by “and” are separate entries in the source; they are usually repeats but may differ in a detail not shown here. Equal values may be shown once. Read-outs that look alike come from different tables or passages of the source.
# B1: wild-type M. thermautotrophicus RFAP synthase (MTH0830) produced in E. coli (Methanothermobacter thermautotrophicus str. Delta H) (protein)
# chain: MVIELIINTPSRLHLTLIDLNGERGRLDGGVGITLNEPELVVGLEASDDMGVEFTSHAEGKLREEYRSKIMEAARRTLKHIGSDEKFHFTVRSMFPAHSGLGSGTQLSLATARLVAEYHGMKFTARELAHIVGRGGTSGIGVASFEDGGFIVDAGHSSREKSDFLPSSASSASPPPVIARYDFPEEWNIIIAIPEIDRSVSGRREVNIFQEYCPLPLRDVERLSHIILMKMMPAILEGDIEAFGESVNEIQGTGFKRIERELQDPLIDRIIDSMISAGAPGAGMSSFGPAVYSVTDEKPGNVAGAVAEIMGPGRIIVTGGRNRGAFMIK
# B2: MTH0830 RFAP synthase R26K variant (Methanothermobacter thermautotrophicus str. Delta H; R26K) (protein)
# chain: B1 chain with R26K
# B3: MTH0830 RFAP synthase D19N variant (Methanothermobacter thermautotrophicus str. Delta H; D19N) (protein)
# chain: B1 chain with D19N
# Key:
# [1] = target: wild-type MTH0830 RFAP synthase (Methanothermobacter thermautotrophicus, UniProt O26918); assay: Isothermal titration calorimetry, wild-type enzyme; assay type: binding; settings: ITC, 35 °C
# Experimental: (§1) The ITC conditions previously established for M. jannaschii RFAP synthase were modified for the RFAP synthase from M. thermautotrophicus. Partially purified wild-type (heat-treated at 65 °C) and variant (heat-treated at 50 °C) RFAP synthases (2–5 mL) were dialyzed against two changes of buffer (250 mL each of 50 mM Tris, 100 mM NaCl, pH 7.6). […] All ITC measurements were carried out using a NANO-ITC isothermal titration calorimeter (TA Instruments, New Castle, DE).
# (§2) Following an 1800 s delay, 10 injections of 5 µL of PRPP each were added every 240 seconds with stirring at 300 rpm.
# [2] = target: T1, MTH0830 RFAP synthase D19N variant (Methanothermobacter thermautotrophicus, UniProt O26918, D19N); assay: Isothermal titration calorimetry, D19N variant; assay type: binding
# T1 sequence (O26918 1-329 D19N): B1 chain with D19N
# Experimental: as §1, §2
# [3] = target: T2, MTH0830 RFAP synthase R26K variant (Methanothermobacter thermautotrophicus, UniProt O26918, R26K); assay: Isothermal titration calorimetry, R26K variant; assay type: binding
# T2 sequence (O26918 1-329 R26K): B1 chain with R26K
# Experimental: as §1, §2
# [4] = target: RFAP synthase from M. jannaschii; design: method as in PMID 15262968; settings: read-out: binding constant (KD) for PRPP; cited from earlier work
# [5] = target: T3, wild-type M. thermautotrophicus RFAP synthase (MTH0830) produced in E. coli (Methanothermobacter thermautotrophicus, UniProt O26918); assay: RFAP synthase enzyme assay (azo-dye derivative of RFAP), wild-type recombinant enzyme; assay type: biochemical; settings: for Vmax / Km: 8.8 mM PRPP; for Km: read-out: KM for pABA
# T3 sequence (O26918 1-329): B1 chain
# Experimental: RFAP synthase activity was determined by producing the azo-dye derivative of the product RFAP as described previously [1],[17]. […] From this point on, the amount of enzyme used in activity assays was within the linear range of 8 to 12 µg. […] All assays were carried out under optimal enzymatic conditions in 70 mM PIPES (pH 6.8), 2 mM DTT at 70 °C for 1 h.
# [6] = test system: RFAP synthase from M. thermophila; settings: read-out: apparent KM for pABA; cited from earlier work
# [7] = test system: RFAP synthase from M. jannaschii; design: method as in PMID 9698382, PMID 15262968; settings: read-out: apparent KM for pABA; cited from earlier work
# [8] = two acidic pKa values; cited from earlier work
# [9] = target: Methanothermobacter thermautotrophicus β-ribofuranosylaminobenzene 5′-phosphate (RFAP) synthase, wild type, recombinant (Methanothermobacter thermautotrophicus); assay: SEC; Superdex 75 gel filtration column in 50 mM TES, 150 mM KCl, 2 mM DTT, ambient temperature; enzyme eluted after 19 min, corresponding to 68.7 kDa; subunit size from SDS-PAGE
# [10] = substrate: Nc1ccc(C(=O)O)cc1; assay: purified protein, by the assay type
# [11] = substrate: Nc1ccc(C(=O)O)cc1; assay: RFAP synthase enzyme assay, R26K variant; assay type: biochemical, Methanothermobacter thermautotrophicus; settings: other: 50 °C, 3 h, pH 6.8, 8.8 mM PRPP
# Experimental: RFAP synthase activity was determined by producing the azo-dye derivative of the product RFAP as described previously,[17]. […] From this point on, the amount of enzyme used in activity assays was within the linear range of 8 to 12 µg. […] All assays were carried out under optimal enzymatic conditions in 70 mM PIPES (pH 6.8), 2 mM DTT at 70 °C for 1 h.
# Due to the inability of the variants to function at 70 °C, the enzymatic assays comparing variant and wild-type kinetics were run in 70 mM PIPES (pH 6.8) with 2 mM DTT at 50 °C for three hours using a single time-point assay. This is the time period over which the enzyme activities were linear at the lower temperature of 50 °C. For these kinetic studies, the wild-type enzyme was purified in the same manner as the variants and was also examined at 50 °C for three hours.
molecule,measurement,setting,value
"O=P(O)(O)OC[C@H]1OC(OP(=O)(O)OP(=O)(O)O)[C@H](O)[C@@H]1O (some centres unmarked) [PRPP, phosphoribosyl-pyrophosphate]",Kd,[1]; read-out: KD for PRPP,2.1 ± 0.11 mM
same,Kd,[2],2 ± 0.3 mM
same,Kd,[3],2.4 ± 0.25 mM
same,Kd,[4],2 mM
"Nc1ccc(C(=O)O)cc1 [pABA, p-aminobenzoic acid]",Vmax,"[5]; 50 °C, 3 h, pABA varied, partially purified",1.45 nmol/min/mg and 1.5 nmol/min/mg
same,Vmax,"[5]; 70 °C, pABA varied 181 µM to 36 mM",approximately 190 nmol/min/mg protein
same,fold higher KM compared to previous homologs,[5]; near neutral conditions versus homologs with pH optimum at 5.3,26 fold
same,Km,"[5]; 50 °C, 3 h, pH 6.8, partially purified without heat step",3.9 mM
same,Km,"[5]; 70 °C, pH 6.8, 1 h, 17.6 mM MgCl2, enzyme purified through Mono Q",4.5 mM
same,Kd,[1]; in presence of saturating PRPP,0.96 ± 0.65 mM
same,Km,[6],58 µM
same,Km,[7],150 µM
same,acidic pKa,[8],4.65 and 4.80
"Methanothermobacter thermautotrophicus β-ribofuranosylaminobenzene 5′-phosphate (RFAP) synthase, wild type, recombinant (enzyme)",stoichiometry N,[9],2
B1,Km,"[10]; other: 50 °C, 3 h, pH 6.8, 8.8 mM PRPP, partially purified without heat step, 50.0 °C",3.9 mM
same,Km,"[10]; other: 70 °C, pH 6.8, 1 h, 8.8 mM PRPP, 17.6 mM MgCl2, enzyme purified through Mono Q, 70.0 °C",4.5 mM
same,Km,"[10]; other: enzymatic assays, summary of Figure 3 and Table 2, pH 6.8",4 mM
B2,Km,[11],38 mM
same,Vmax,[11],0.005 µmol/min/mg
B3,Km,"[10]; other: 50 °C, 3 h, pH 6.8, 8.8 mM PRPP",12 mM
